Data from ChEMBL document CHEMBL1201862, “PubChem BioAssay data set” (2004).
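Interpolation was linear, between the two tested concentrations surrounding the appropriate level; five concentrations were tested over 48 hours in 96-well plates. GI50 marks 50% less growth.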 Activity calls are given as the source filed them. No stated cut-off is given here; in the data, active = GI50 up to about 1.1 µM and inactive = higher.

How the values were obtained:
Assay in all cases: DTP human tumour cell line panel, 48 h
[1] = test system: Malme-3M
[2] = test system: A498
[3] = test system: Hs-578T
[4] = test system: OVCAR-8
[5] = test system: MCF7
[6] = test system: PC-3
[7] = test system: SK-MEL-2
[8] = test system: MDA-MB-231
[9] = test system: RXF 393
[10] = test system: OVCAR-5
[11] = test system: SW-620
[12] = test system: KM12
[13] = test system: EKVX
[14] = test system: SN12C
[15] = test system: SNB-19
[16] = test system: MDA-MB-435
[17] = test system: HOP-62
[18] = test system: NCI/ADR-RES
[19] = test system: M14
[20] = test system: UO-31

For `Fc1cccc2nc(-c3ccccc3)cc(OCc3ccccc3)c12`, the GI50 [1] was > 100 µM (inactive), the GI50 [2] was > 100 µM (inactive) and the GI50 [3] was > 100 µM (inactive). The GI50 [4] was > 100 µM (inactive), the GI50 [5] was 59.7 µM (inactive) and the GI50 [6] was > 100 µM (inactive). The GI50 [7] was > 100 µM (inactive), the GI50 [8] was > 100 µM (inactive) and the GI50 [9] was 69.5 µM (inactive). For the same molecule, the GI50 [10] was > 100 µM (inactive), the GI50 [11] was > 100 µM (inactive) and the GI50 [12] was > 100 µM (inactive). The GI50 [13] was 20.8 µM (inactive), the GI50 [14] was > 100 µM (inactive) and the GI50 [15] was > 100 µM (inactive). The GI50 [16] was > 100 µM (inactive), the GI50 [17] was > 100 µM (inactive) and the GI50 [18] was > 100 µM (inactive). For the same molecule, the GI50 [19] was > 100 µM (inactive) and the GI50 [20] was > 100 µM (inactive).

With `C(CCc1nnc2c(n1)CCCC2)Cc1nnc2c(n1)CCCC2` the GI50 [1] was > 100 µM (inactive), the GI50 [2] was > 100 µM (inactive) and the GI50 [3] was > 100 µM (inactive). The GI50 [4] was > 100 µM (inactive), the GI50 [5] was > 100 µM (inactive) and the GI50 [6] was 85.7 µM (inactive). The GI50 [7] was > 100 µM (inactive), the GI50 [8] was > 100 µM (inactive) and the GI50 [9] was > 100 µM (inactive). The GI50 [10] was > 100 µM (inactive), the GI50 [11] was > 100 µM (inactive) and the GI50 [12] was > 100 µM (inactive). For the same molecule, the GI50 [13] was > 100 µM (inactive), the GI50 [14] was > 100 µM (inactive) and the GI50 [15] was > 100 µM (inactive). For the same molecule, the GI50 [16] was 88.7 µM (inactive), the GI50 [17] was > 100 µM (inactive) and the GI50 [18] was > 100 µM (inactive). The GI50 [19] was > 100 µM (inactive) and the GI50 [20] was > 100 µM (inactive).

In the case of `O=C([O-])Cc1ccccc1.[Na+]` [SODIUM PHENYLACETATE], the GI50 [1] is reported as 706 µM (inactive), the GI50 [2] is reported as 519 µM (inactive) and the GI50 [3] is reported as 385 µM (inactive). For the same molecule, the GI50 [4] was 611 µM (inactive), the GI50 [5] was > 2000 µM (inactive) and the GI50 [6] was > 2000 µM (inactive). For the same molecule, the GI50 [7] was > 2000 µM (inactive), the GI50 [8] was 174 µM (inactive) and the GI50 [9] was 582 µM (inactive). The GI50 [10] was > 2000 µM (inactive), the GI50 [11] was 804 µM (inactive) and the GI50 [12] was 773 µM (inactive). For the same molecule, the GI50 [13] was > 2000 µM (inactive), the GI50 [14] was 23.9 µM (inactive) and the GI50 [15] was > 2000 µM (inactive). The GI50 [16] was 1000 µM (inactive), the GI50 [17] was 200 µM (inactive) and the GI50 [18] was 540 µM (inactive). For the same molecule, the GI50 [19] was > 2000 µM (inactive) and the GI50 [20] was 929 µM (inactive).

For `NC1=NC(c2ccc(Cl)cc2)N(c2ccc(S(N)(=O)=O)cc2)C(N)=N1` (stereo not given), the GI50 [1] was > 100 µM (inactive), the GI50 [2] was > 100 µM (inactive) and the GI50 [3] was > 100 µM (inactive). The GI50 [4] was > 100 µM (inactive), the GI50 [5] was > 100 µM (inactive) and the GI50 [6] was > 100 µM (inactive). For the same molecule, the GI50 [7] was > 100 µM (inactive), the GI50 [8] was > 100 µM (inactive) and the GI50 [9] was > 100 µM (inactive). For the same molecule, the GI50 [10] was > 100 µM (inactive), the GI50 [11] was > 100 µM (inactive) and the GI50 [12] was > 100 µM (inactive). For the same molecule, the GI50 [13] was > 100 µM (inactive), the GI50 [14] was > 100 µM (inactive) and the GI50 [15] was > 100 µM (inactive). The GI50 [16] was > 100 µM (inactive), the GI50 [17] was > 100 µM (inactive) and the GI50 [18] was > 100 µM (inactive). For the same molecule, the GI50 [19] was > 100 µM (inactive) and the GI50 [20] was > 100 µM (inactive).

With `[N-]=[N+]=Nc1c([N+](=O)[O-])c(Cl)nc2ccccc12` the GI50 [1] was 1.69 µM (inactive), the GI50 [2] was 13.7 µM (inactive) and the GI50 [3] was 3.12 µM (inactive). The GI50 [4] was 1.87 µM (inactive), the GI50 [5] was 1.54 µM (inactive) and the GI50 [6] was 1.91 µM (inactive). For the same molecule, the GI50 [7] was 1.4 µM (inactive), the GI50 [8] was 1.85 µM (inactive) and the GI50 [9] was 1.86 µM (inactive). For the same molecule, the GI50 [10] was 2.44 µM (inactive), the GI50 [11] was 0.48 µM (active) and the GI50 [12] was 7.16 µM (inactive). The GI50 [13] was 3.01 µM (inactive), the GI50 [14] was 2.23 µM (inactive) and the GI50 [15] was 14.4 µM (inactive). The GI50 [16] was 2.38 µM (inactive), the GI50 [17] was 19.8 µM (inactive) and the GI50 [18] was 2.56 µM (inactive). For the same molecule, the GI50 [19] was 1.44 µM (inactive) and the GI50 [20] was 0.632 µM (active).

In the case of `CCCCCCCCCCCCCCCCCCNc1nc(=O)n(C2CC(O)C(COP(=O)(O)OCC3OC(n4ccc(N)nc4=O)C(O)C3O)O2)cc1F` (stereo not given), the GI50 [1] is reported as 24.5 µM (inactive), the GI50 [2] is reported as 17.2 µM (inactive) and the GI50 [3] is reported as > 100 µM (inactive). The GI50 [4] was 4.13 µM (inactive), the GI50 [5] was 6.7 µM (inactive) and the GI50 [6] was 28.6 µM (inactive). For the same molecule, the GI50 [7] was > 100 µM (inactive), the GI50 [8] was 27.7 µM (inactive) and the GI50 [9] was > 100 µM (inactive). For the same molecule, the GI50 [10] was 52.6 µM (inactive), the GI50 [11] was > 100 µM (inactive) and the GI50 [12] was > 100 µM (inactive). The GI50 [13] was > 100 µM (inactive), the GI50 [14] was 27 µM (inactive) and the GI50 [15] was 10.6 µM (inactive). For the same molecule, the GI50 [16] was > 100 µM (inactive), the GI50 [17] was 18.7 µM (inactive) and the GI50 [18] was 17.9 µM (inactive). For the same molecule, the GI50 [19] was 9.35 µM (inactive) and the GI50 [20] was 24.5 µM (inactive).

With `Cc1ccc(S(=O)(=O)N/N=C/C2(c3ccccc3)c3ccccc3-c3ccccc32)cc1` the GI50 [1] was 5.42 µM (inactive), the GI50 [2] was 18.6 µM (inactive) and the GI50 [3] was 14.3 µM (inactive). The GI50 [4] was 8.97 µM (inactive), the GI50 [5] was 6.98 µM (inactive) and the GI50 [6] was 3.38 µM (inactive). The GI50 [7] was 12.2 µM (inactive), the GI50 [8] was 6.64 µM (inactive) and the GI50 [9] was 13 µM (inactive). For the same molecule, the GI50 [10] was 12.4 µM (inactive), the GI50 [11] was 15 µM (inactive) and the GI50 [12] was 7.76 µM (inactive). For the same molecule, the GI50 [13] was 8.95 µM (inactive), the GI50 [14] was 11.7 µM (inactive) and the GI50 [15] was 18.7 µM (inactive). The GI50 [16] was 11 µM (inactive), the GI50 [17] was 17.7 µM (inactive) and the GI50 [18] was 7.94 µM (inactive). For the same molecule, the GI50 [19] was 10.9 µM (inactive) and the GI50 [20] was 5.82 µM (inactive).

For `CSc1nc(Cl)c2c(n1)Sc1nc3ccccc3n1C2O` (stereo not given), the GI50 [1] was 4.91 µM (inactive), the GI50 [2] was > 79.1 µM (inactive) and the GI50 [3] was 5.36 µM (inactive). The GI50 [4] was 2.84 µM (inactive), the GI50 [5] was 4.02 µM (inactive) and the GI50 [6] was 4.29 µM (inactive). The GI50 [7] was 4.38 µM (inactive), the GI50 [8] was 4.88 µM (inactive) and the GI50 [9] was 1.58 µM (inactive). For the same molecule, the GI50 [10] was 4.92 µM (inactive), the GI50 [11] was 3.52 µM (inactive) and the GI50 [12] was 3.44 µM (inactive). The GI50 [13] was 33.4 µM (inactive), the GI50 [14] was 4.85 µM (inactive) and the GI50 [15] was 14.4 µM (inactive). The GI50 [16] was 3.63 µM (inactive), the GI50 [17] was 13.8 µM (inactive) and the GI50 [18] was 3.27 µM (inactive). The GI50 [19] was 3.46 µM (inactive) and the GI50 [20] was 3.44 µM (inactive).

`Cc1occc1C(=S)Nc1ccc(Cl)c(C(=O)OC(C(C)C)C(C)C)c1` was tested, and the GI50 [1] was 12 µM (inactive), the GI50 [2] was 13.6 µM (inactive) and the GI50 [3] was 17.6 µM (inactive). The GI50 [4] was 13.3 µM (inactive), the GI50 [5] was 13.1 µM (inactive) and the GI50 [6] was 7.46 µM (inactive). The GI50 [7] was 16.5 µM (inactive), the GI50 [8] was 12.6 µM (inactive) and the GI50 [9] was 13.3 µM (inactive). The GI50 [10] was 22.6 µM (inactive), the GI50 [11] was 16.6 µM (inactive) and the GI50 [12] was 12.5 µM (inactive). For the same molecule, the GI50 [13] was 8 µM (inactive), the GI50 [14] was 14.9 µM (inactive) and the GI50 [15] was 21.3 µM (inactive). The GI50 [16] was 15.1 µM (inactive), the GI50 [17] was 17.2 µM (inactive) and the GI50 [18] was 9.98 µM (inactive). The GI50 [19] was 12.7 µM (inactive) and the GI50 [20] was 5 µM (inactive).

`CC1(C)OC(C(=O)Nc2cc3c4ccccc4ccc3c3ccccc23)C(C(=O)N2CCCCC2)O1` (stereo not given) was tested, and the GI50 [1] was > 100 µM (inactive), the GI50 [2] was > 23.9 µM (inactive) and the GI50 [3] was 3.72 µM (inactive). For the same molecule, the GI50 [4] was 0.957 µM (active), the GI50 [5] was 1.16 µM (inactive) and the GI50 [6] was 3.33 µM (inactive). The GI50 [7] was 9.18 µM (inactive), the GI50 [8] was > 38.9 µM (inactive) and the GI50 [9] was 1.17 µM (inactive). The GI50 [10] was > 100 µM (inactive), the GI50 [11] was 0.813 µM (active) and the GI50 [12] was 2.18 µM (inactive). For the same molecule, the GI50 [13] was > 54.8 µM (inactive), the GI50 [14] was 9.18 µM (inactive) and the GI50 [15] was 4.2 µM (inactive). For the same molecule, the GI50 [16] was 2.7 µM (inactive), the GI50 [17] was 17.6 µM (inactive) and the GI50 [18] was 2.08 µM (inactive). The GI50 [19] was 3.56 µM (inactive) and the GI50 [20] was 2.17 µM (inactive).
